Each structure is given as a SMILES string. Structures can show the parent of a compound that is named as a salt. Some results are limits rather than exact numbers.

The subject of assay [1] is Klebsiella pneumoniae (4 strains). Briefly: MIC, broth microdilution, normal MH medium. The class given is cell-based. The method, then:
(§1) Supplier of the strains: all of the above strains were provided by Sichuan Primed Shines Bio-tech Co., Ltd. A single colony was isolated by streaking on agar plates for each strain prior to the experiment, and the cells freshly cultured at 37° C. overnight were appropriately diluted for the experiment.
(§2) Medium: MH liquid medium (OXOID).
(§3) Culture condition: cells were incubated at 35-37° C. for 16-18 h.
(§4) The broth microdilution method recommended by Clinical and Laboratory Standards Institute (CLSI), Performance Standards for Antimicrobial Susceptibility Testing; Twenty-Third Informational Supplement, M02-All, M07-A9 and M11-A8, 2013 was used to determine the MIC value of each test sample against each test strain in the normal MH medium and iron-deficient MH medium.
(§5) After diluting each sample to different concentrations with normal MH medium, 100 μl of each test sample solution at different concentrations was separately aspirated onto a 96-well sterile polystyrene plate. Drug solutions were added to the 1st to 10th well with the final concentrations of 16, 8, 4, 2, 1, 0.5, 0.25, 0.125, 0.06, and 0.03 mg/L in each well, respectively. The 11th well, as a blank control, was not added with drugs and bacteria. The 12th well, as a bacterial growth control, was added with bacteria but no drug.
The OD600 value was measured by a microplate reader, Minimal Inhibitory Concentration (MIC) of a drug is the lowest concentration of the drug which prevents growth of bacteria in the wells. 1.2.2 MIC in iron-deficient MH medium
In general terms: In broth dilution the organism is exposed to a series of concentrations in liquid medium.

For assay [2], the system named is Escherichia coli ATCC 35218. Put plainly: MIC, broth microdilution, iron-deficient MH medium. The class given is cell-based. The following applies: Escherichia coli, ATCC35218; iron-deficient MH medium (16 mg/L 2,2'-bipyridine); quality control strain; read-out: Antibacterial activity MIC, Escherichia coli ATCC 35218. The method, then:
(§6) Strain for quality control: Escherichia coli ATCC35218, purchased from National Center of Clinical Laboratory.
as §2, §3, §4
(§7) BPL was added to the normal MH medium to obtain a final concentration of 16 mg/L; According to the method in Section 1.2.1, 100 μl of each test sample solution at different concentrations was aspirated to the 1st to 10th well in a 96-well sterile polystyrene plate to obtain the final drug concentrations of 16, 8, 4, 2, 1, 0.5, 0.25, 0.125, 0.06, and 0.03 mg/L, respectively. Then, 100 μl of the test bacterial liquid was added to each well (200 μl per well), and the final concentration of the bacterial liquid was approximately 10^4 CFU/ml. After sealing, it was placed in a 35-37° C. incubator for 18-20 hours for testing the result. The OD600 value was measured by a microplate reader, Minimal Inhibitory Concentration (MIC) of a drug is the lowest concentration of the drug which prevents growth of bacteria in the wells.

Assay [3] has as its system Escherichia coli ATCC 35218. Briefly: MIC, broth microdilution, normal MH medium. The class given is cell-based. Conditions: Escherichia coli, ATCC35218, quality control strain, read-out: Antibacterial activity MIC, Escherichia coli ATCC 35218. The method, then:
as §6, §2, §3, §4, §5
(§8) The test bacterial liquid was adjusted to a bacterial suspension of 0.5 Mcfarland standard with physiological saline, and diluted with MH broth at 1:100, and then added to the drug solution so that a final concentration of the bacterial liquid was approximately 10^4 CFU/ml; 100 μl of the bacterial liquid was further added to each of the above wells (the total volume in each well is 200 μl), which was sealed and placed in a 35-37° C. incubator for 18-20 h for testing the result. The OD600 value was measured by a microplate reader, Minimal Inhibitory Concentration (MIC) of a drug is the lowest concentration of the drug which prevents growth of bacteria in the wells. 1.2.2 MIC in iron-deficient MH medium

Assay [4] concerns Escherichia coli ECO-14-4 (ESBLs). Briefly: In vivo efficacy in mice systemically infected with Escherichia coli ECO-14-4 (ESBLs). Conditions: Escherichia coli; Kunming mice, intraperitoneal infection, drug s.c. 0.5 h and 4 h after infection, deaths over 7 days, Bliss method; read-out: ED50 Subcutaneous injection. The method, then:
3.1 Test strains: Clinically isolated pathogenic Escherichia coli ECO-14-4 (ESBLs), supplied by Sichuan Primed Shines Bio-tech Co., Ltd.
3.2 Test animals: Kunming mice, age: 4 to 5 weeks, weight: 18 to 22 g, half male, half female, SPF grade.
3.3 Test methods: Mice were randomly divided into several groups, 5 mice for each group, half male and half female, and 5 doses for each test drug: 1.25, 2.5, 5, 10 and 20 mg/kg. The mice were intraperitoneally injected with 0.5 mL of […] CFU/mL bacterial suspension for each mouse, and subcutaneously injected with the drug at the designed dose 0.5 h and 4 h after infection. The subcutaneous injection volume was 0.2 ml/20 g mouse weight; the number of deaths in mice was observed and recorded for 7 consecutive days. According to the number of deaths in mice, the half effective dose ED50 was calculated according to the Bliss method using the DAS 1.0 software, edited by Sun Ruiyuan et al.

Assay [5] has as its system Escherichia coli (4 strains). Put plainly: MIC, broth microdilution, normal MH medium. The class given is cell-based. The method, then:
as §1, §2, §3, §4, §5, §8

Assay [6] concerns Acinetobacter baumannii (4 strains). Put plainly: MIC, broth microdilution, normal MH medium. The class given is cell-based. The following applies: Acinetobacter baumannii, read-out: Antibacterial activity MIC, Acinetobacter baumarmii (4 strains). The method, then:
as §1, §2, §3, §4, §5, §8

In assay [7] the test system is Pseudomonas aeruginosa (4 strains). Briefly: MIC, broth microdilution, normal MH medium. The following applies: Pseudomonas aeruginosa, multidrug-resistant clinical isolates (integrator I, IMP4), read-out: Antibacterial activity MIC, Pseudomonas aeruginosa (4 strains). The class given is cell-based. The method, then: as §1, §2, §3, §4, §5, §8
The test system of assay [8] is Klebsiella pneumoniae (4 strains). Put plainly: MIC, broth microdilution, iron-deficient MH medium. The class given is cell-based. The method, then: as §1, §2, §3, §4, §7
Assay [9] relates to Escherichia coli (4 strains). Briefly: MIC, broth microdilution, iron-deficient MH medium. The format is cell-based. Conditions: Escherichia coli; iron-deficient MH medium (16 mg/L 2,2'-bipyridine); clinical isolates (ESBLs); read-out: Antibacterial activity MIC, Escherichia coli (4 strains). The method, then: as §1, §2, §3, §4, §7
For assay [10], the system named is Acinetobacter baumannii (4 strains). Briefly: MIC, broth microdilution, iron-deficient MH medium. The format is cell-based. Conditions: Acinetobacter baumannii; iron-deficient MH medium (16 mg/L 2,2'-bipyridine); multidrug-resistant clinical isolates (integron I, OXA23); read-out: Antibacterial activity MIC, Acinetobacter baumannii (4 strains). The method, then: as §1, §2, §3, §4, §7

Assay [11] relates to Pseudomonas aeruginosa (4 strains). Put plainly: MIC, broth microdilution, iron-deficient MH medium. The class given is cell-based. Conditions: Pseudomonas aeruginosa; iron-deficient MH medium (16 mg/L 2,2'-bipyridine); multidrug-resistant clinical isolates (integrator I, IMP4); read-out: Antibacterial activity MIC, Pseudomonas aeruginosa (4 strains). The method, then:
as §1, §2, §3, §4, §7

Turning to `CC(C)C(O/N=C(\C(=O)N[C@@H]1C(=O)N(OS(=O)(=O)O)C1(C)C)c1csc(N)n1)c1cc(=O)c(O)cn1O` (stereo partly drawn) [Compound 12, (3S)-3-((Z)-2-(2-aminothiazol-4-yl)-2-((1-(1,5-dihydroxy-4-oxo-1,4-dihydropyridin-2-yl)methylisopropyloxy)imine)acetamido)-2,2-dimethyl-4-oxoazetidine-1-hydrogen sulfate], the MIC in [1] (Klebsiella pneumoniae, multi-drug resistant clinical isolates (KPC2), read-out: Antibacterial activity MIC, Klebsiella pneumoniae (4 strains)) was 0.5 to 1 µg/mL; in assay [2] it was under 0.03 µg/mL; in assay [3], under 0.03 µg/mL; in assay [5] (Escherichia coli, clinical isolates (ESBLs), read-out: Antibacterial activity MIC, Escherichia coli (4 strains)), 0.03 to 0.25 µg/mL; in [6], 2 µg/mL; in assay [7] it was 0.25 to 2 µg/mL. Also, the MIC in assay [8] (Klebsiella pneumoniae, iron-deficient MH medium (16 mg/L 2,2'-bipyridine), multi-drug resistant clinical isolates (KPC2), read-out: Antibacterial activity MIC, Klebsiella pneumoniae (4 strains)) lay within 0.25 to 0.5 µg/mL; in assay [9], 0.03 to 0.25 µg/mL; in assay [10], 0.5 to 1 µg/mL; in assay [11], 0.25 to 1 µg/mL. The “times more effective than BAL30072 in inhibitory activity against Klebsiella pneumoniae” value in assay [1] (from MIC of Table 2) is listed as 64-128 times. Besides, in assay [4], the ED50 is 3.37 mg/kg. Also, the “times more effective than BAL30072 in inhibitory activity against Escherichia coli” value in assay [5] (from MIC of Table 2) was 4-32 times. In addition, the “times more effective than BAL30072 in inhibitory activity against Klebsiella pneumonia” value in assay [8] (iron-deficient MH medium, from MIC of Table 3) is given as 128-256 times.

One may read the MIC as the lowest concentration that inhibits growth of the organism. In general, ED50 refers to the dose that gives a 50% effect, or the effect in half of the subjects.

These data come from patent publication US10501454B2, “Monocyclic β-lactam-siderophore conjugate, and preparation method and use thereof” (Shanghai Institute of Materia Medica, Chinese Academy of …, priority 2016, dated 2019).
